# Measurements from the supplement of paper PMC10307832.
# Columns and labels:
# Experiment in all cases: relative viability (nuclei count vs DMSO), 5 days (fraction); higher = more cells survive
# NCI-H2126 = tested on: NCI-H2126
# Procedure, shortened: (§1)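 Each reported value is a median over duplicate plates. It expresses relative viability: treated-well nuclei count divided by vehicle-well nuclei count. Lung cancer cell lines in 1536-well plates were dosed by pin tool a day after seeding, alone with one drug or with a fixed anchor-drug dose plus five library-drug doses (not always all listed) in √10 steps, and nuclei were counted after 5 days.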
# HOP-62 = tested on: HOP-62
# Procedure, shortened: as §1
# LU99A = tested on: LU99A
# Procedure, shortened: as §1
# HARA = tested on: HARA
# Procedure, shortened: as §1
# CAL-12T = tested on: CAL-12T
# Procedure, shortened: as §1
# HCC-827 = tested on: HCC-827
# Procedure, shortened: as §1
# NCI-H2009 = tested on: NCI-H2009
# Procedure, shortened: as §1
# COR-L 105 = tested on: COR-L 105
# Procedure, shortened: as §1
# BEN = tested on: BEN
# Procedure, shortened: as §1
# LC-2-ad = tested on: LC-2-ad
# Procedure, shortened: as §1
# NCI-H1993 = tested on: NCI-H1993
# Procedure, shortened: as §1
# PC-14 = tested on: PC-14
# Procedure, shortened: as §1
# LXF-289 = tested on: LXF-289
# Procedure, shortened: as §1
# HCC-366 = tested on: HCC-366
# Procedure, shortened: as §1
# NCI-H2087 = tested on: NCI-H2087
# Procedure, shortened: as §1
# COR-L23 = tested on: COR-L23
# Procedure, shortened: as §1
# HCC-44 = tested on: HCC-44
# Procedure, shortened: as §1
# PC-3 [JPC-3] = tested on: PC-3 [JPC-3]
# Procedure, shortened: as §1
# SK-MES-1 = tested on: SK-MES-1
# Procedure, shortened: as §1
# NCI-H727 = tested on: NCI-H727
# Procedure, shortened: as §1
# HCC-15 = tested on: HCC-15
# Procedure, shortened: as §1
# NCI-H2170 = tested on: NCI-H2170
# Procedure, shortened: as §1
# LCLC-97TM1 = tested on: LCLC-97TM1
# Procedure, shortened: as §1
smiles,measurement,setting,value
O=C(O)CCCCC(CCSCc1ccccc1)SCc1ccccc1 (stereo not given) [CPI-613] + Cc1nc(NC(=O)N2CCC[C@H]2C(N)=O)sc1-c1ccnc(C(C)(C)C(F)(F)F)c1 [Alpelisib] (partner 2 µM),relative viability,NCI-H2126; first compound 5 µM,0.755
same,relative viability,NCI-H2126; first compound 15.81 µM,0.815
same,relative viability,NCI-H2126; first compound 50 µM,0.78
same,relative viability,NCI-H2126; first compound 158.11 µM,0.749
same,relative viability,NCI-H2126; first compound 500 µM,0.747
same,relative viability,HOP-62; first compound 5 µM,1.07
same,relative viability,HOP-62; first compound 15.81 µM,0.833
same,relative viability,HOP-62; first compound 50 µM,0.916
same,relative viability,HOP-62; first compound 158.11 µM,0.189
same,relative viability,HOP-62; first compound 500 µM,0.246
same,relative viability,LU99A; first compound 5 µM,0.535
same,relative viability,LU99A; first compound 15.81 µM,0.51
same,relative viability,LU99A; first compound 50 µM,0.461
same,relative viability,LU99A; first compound 158.11 µM,0.227
same,relative viability,LU99A; first compound 500 µM,0.0551
same,relative viability,HARA; first compound 5 µM,0.856
same,relative viability,HARA; first compound 15.81 µM,0.681
same,relative viability,HARA; first compound 50 µM,0.942
same,relative viability,HARA; first compound 158.11 µM,0.401
same,relative viability,HARA; first compound 500 µM,0.0463
same,relative viability,CAL-12T; first compound 5 µM,1
same,relative viability,CAL-12T; first compound 15.81 µM,1.11
same,relative viability,CAL-12T; first compound 50 µM,1.14
same,relative viability,CAL-12T; first compound 158.11 µM,0.0352
same,relative viability,CAL-12T; first compound 500 µM,0.0082
same,relative viability,HCC-827; first compound 5 µM,0.972
same,relative viability,HCC-827; first compound 15.81 µM,1
same,relative viability,HCC-827; first compound 50 µM,0.974
same,relative viability,HCC-827; first compound 158.11 µM,0.47
same,relative viability,HCC-827; first compound 500 µM,0.218
same,relative viability,NCI-H2009; first compound 5 µM,1.19
same,relative viability,NCI-H2009; first compound 15.81 µM,1.1
same,relative viability,NCI-H2009; first compound 50 µM,1.12
same,relative viability,NCI-H2009; first compound 158.11 µM,0.141
same,relative viability,NCI-H2009; first compound 500 µM,0.014
same,relative viability,COR-L 105; first compound 5 µM,0.888
same,relative viability,COR-L 105; first compound 15.81 µM,1.11
same,relative viability,COR-L 105; first compound 50 µM,0.909
same,relative viability,COR-L 105; first compound 158.11 µM,0.476
same,relative viability,COR-L 105; first compound 500 µM,0.161
same,relative viability,BEN; first compound 5 µM,0.929
same,relative viability,BEN; first compound 15.81 µM,0.949
same,relative viability,BEN; first compound 50 µM,0.969
same,relative viability,BEN; first compound 158.11 µM,0.831
same,relative viability,BEN; first compound 500 µM,0.858
same,relative viability,LC-2-ad; first compound 5 µM,0.83
same,relative viability,LC-2-ad; first compound 15.81 µM,0.818
same,relative viability,LC-2-ad; first compound 50 µM,0.8
same,relative viability,LC-2-ad; first compound 158.11 µM,0.201
same,relative viability,LC-2-ad; first compound 500 µM,0.006
same,relative viability,NCI-H1993; first compound 5 µM,0.709
same,relative viability,NCI-H1993; first compound 15.81 µM,0.721
same,relative viability,NCI-H1993; first compound 50 µM,0.752
same,relative viability,NCI-H1993; first compound 158.11 µM,0.485
same,relative viability,NCI-H1993; first compound 500 µM,0.432
same,relative viability,PC-14; first compound 5 µM,0.97
same,relative viability,PC-14; first compound 15.81 µM,0.884
same,relative viability,PC-14; first compound 50 µM,0.849
same,relative viability,PC-14; first compound 158.11 µM,1.01
same,relative viability,PC-14; first compound 500 µM,0.863
same,relative viability,LXF-289; first compound 5 µM,1.02
same,relative viability,LXF-289; first compound 15.81 µM,0.961
same,relative viability,LXF-289; first compound 50 µM,0.988
same,relative viability,LXF-289; first compound 158.11 µM,0.318
same,relative viability,LXF-289; first compound 500 µM,0.0306
same,relative viability,HCC-366; first compound 5 µM,0.322
same,relative viability,HCC-366; first compound 15.81 µM,0.373
same,relative viability,HCC-366; first compound 50 µM,0.441
same,relative viability,HCC-366; first compound 158.11 µM,0.355
same,relative viability,HCC-366; first compound 500 µM,0.0061
same,relative viability,NCI-H2087; first compound 5 µM,1.14
same,relative viability,NCI-H2087; first compound 15.81 µM,0.95
same,relative viability,NCI-H2087; first compound 50 µM,0.95
same,relative viability,NCI-H2087; first compound 158.11 µM,0.0725
same,relative viability,NCI-H2087; first compound 500 µM,0.0158
same,relative viability,COR-L23; first compound 5 µM,0.745
same,relative viability,COR-L23; first compound 15.81 µM,0.696
same,relative viability,COR-L23; first compound 50 µM,0.852
same,relative viability,COR-L23; first compound 158.11 µM,0.281
same,relative viability,COR-L23; first compound 500 µM,0.0191
same,relative viability,HCC-44; first compound 5 µM,0.841
same,relative viability,HCC-44; first compound 15.81 µM,0.758
same,relative viability,HCC-44; first compound 50 µM,0.92
same,relative viability,HCC-44; first compound 158.11 µM,0.374
same,relative viability,HCC-44; first compound 500 µM,0.041
same,relative viability,PC-3 [JPC-3]; first compound 5 µM,1.05
same,relative viability,PC-3 [JPC-3]; first compound 15.81 µM,0.943
same,relative viability,PC-3 [JPC-3]; first compound 50 µM,0.934
same,relative viability,PC-3 [JPC-3]; first compound 158.11 µM,0.921
same,relative viability,PC-3 [JPC-3]; first compound 500 µM,0.903
same,relative viability,SK-MES-1; first compound 5 µM,0.894
same,relative viability,SK-MES-1; first compound 15.81 µM,0.982
same,relative viability,SK-MES-1; first compound 50 µM,0.784
same,relative viability,SK-MES-1; first compound 158.11 µM,0.724
same,relative viability,SK-MES-1; first compound 500 µM,0.785
same,relative viability,NCI-H727; first compound 5 µM,0.531
same,relative viability,NCI-H727; first compound 15.81 µM,0.558
same,relative viability,NCI-H727; first compound 50 µM,0.662
same,relative viability,NCI-H727; first compound 158.11 µM,0.226
same,relative viability,NCI-H727; first compound 500 µM,0.0618
same,relative viability,HCC-15; first compound 5 µM,0.942
same,relative viability,HCC-15; first compound 15.81 µM,0.805
same,relative viability,HCC-15; first compound 50 µM,0.828
same,relative viability,HCC-15; first compound 158.11 µM,0.562
same,relative viability,HCC-15; first compound 500 µM,0.35
same,relative viability,NCI-H2170; first compound 5 µM,0.808
same,relative viability,NCI-H2170; first compound 15.81 µM,0.766
same,relative viability,NCI-H2170; first compound 50 µM,0.796
same,relative viability,NCI-H2170; first compound 158.11 µM,0.547
same,relative viability,NCI-H2170; first compound 500 µM,0.483
same,relative viability,LCLC-97TM1; first compound 5 µM,0.216
same,relative viability,LCLC-97TM1; first compound 15.81 µM,0.254
same,relative viability,LCLC-97TM1; first compound 50 µM,0.311
same,relative viability,LCLC-97TM1; first compound 158.11 µM,0.139
same,relative viability,LCLC-97TM1; first compound 500 µM,0.0641
